“And” between values parts separate entries of the source, which are not always exact repeats. Equal values may be shown once.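 Dose response: 5 concentrations. Exposure: 48 h. Format: 96-well plates. Endpoint: linear interpolation; highest concentration if not reached. GI50: concentration for 50% inhibition of growth. The concentration for full growth arrest is given as TGI.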
How the values were obtained:
Experiment in all cases: NCI tumour cell line growth inhibition, 48 h
HOP-18 NSCLC = test system: HOP-18 NSCLC
P388 leukemia = test system: P388 leukemia
K-562 leukemia = test system: K-562 leukemia
OVCAR-8 ovarian = test system: OVCAR-8 ovarian
OVCAR-4 ovarian = test system: OVCAR-4 ovarian
SN12K1 renal = test system: SN12K1 renal
MDA-MB-435 = test system: MDA-MB-435
DLD-1 colon = test system: DLD-1 colon
DMS 114 small cell lung = test system: DMS 114 small cell lung
SF-539 CNS = test system: SF-539 CNS
M14 melanoma = test system: M14 melanoma
HS 578T breast = test system: HS 578T breast
SNB-78 CNS = test system: SNB-78 CNS
MDA-N = test system: MDA-N
HL-60(TB) leukemia = test system: HL-60(TB) leukemia
HCC-2998 colon = test system: HCC-2998 colon
DMS 273 small cell lung = test system: DMS 273 small cell lung
MDA-MB-231 breast = test system: MDA-MB-231 breast
KM20L2 colon = test system: KM20L2 colon
SK-MEL-2 melanoma = test system: SK-MEL-2 melanoma
SF-295 CNS = test system: SF-295 CNS
RXF-631 renal = test system: RXF-631 renal
SW-620 colon = test system: SW-620 colon
CCRF-CEM leukemia = test system: CCRF-CEM leukemia
ACHN renal = test system: ACHN renal
LXFL 529 NSCLC = test system: LXFL 529 NSCLC
SN12C renal = test system: SN12C renal
LOX IMVI melanoma = test system: LOX IMVI melanoma
CAKI-1 renal = test system: CAKI-1 renal
UO-31 renal = test system: UO-31 renal
SK-MEL-28 melanoma = test system: SK-MEL-28 melanoma
HCT-116 colon = test system: HCT-116 colon
A498 renal = test system: A498 renal
EKVX NSCLC = test system: EKVX NSCLC
TK-10 renal = test system: TK-10 renal
M19-MEL melanoma = test system: M19-MEL melanoma
SR leukemia = test system: SR leukemia
MOLT-4 leukemia = test system: MOLT-4 leukemia
OVCAR-5 ovarian = test system: OVCAR-5 ovarian
KM12 colon = test system: KM12 colon
U251 CNS = test system: U251 CNS
COLO 205 colon = test system: COLO 205 colon
HCT-15 colon = test system: HCT-15 colon
SNB-19 CNS = test system: SNB-19 CNS
RXF 393 renal = test system: RXF 393 renal
SK-OV-3 ovarian = test system: SK-OV-3 ovarian
MALME-3M melanoma = test system: MALME-3M melanoma
NCI-H23 lung = test system: NCI-H23 lung
HT29 colon = test system: HT29 colon
RPMI-8226 leukemia = test system: RPMI-8226 leukemia
SF-268 CNS = test system: SF-268 CNS
NCI-H522 lung = test system: NCI-H522 lung
UACC-257 melanoma = test system: UACC-257 melanoma
NCI-H226 lung = test system: NCI-H226 lung
NCI-H460 lung = test system: NCI-H460 lung
SK-MEL-5 melanoma = test system: SK-MEL-5 melanoma
HOP-62 NSCLC = test system: HOP-62 NSCLC
UACC-62 melanoma = test system: UACC-62 melanoma
IGROV1 ovarian = test system: IGROV1 ovarian
A549 NSCLC = test system: A549 NSCLC
SNB-75 CNS = test system: SNB-75 CNS
XF 498 CNS = test system: XF 498 CNS
786-0 renal = test system: 786-0 renal
HOP-92 NSCLC = test system: HOP-92 NSCLC
OVCAR-3 ovarian = test system: OVCAR-3 ovarian

Compound: CO[C@H]1C[C@@H]2CC[C@@H](C)[C@@](O)(O2)C(=O)C(=O)N2CCCC[C@H]2C(=O)O[C@H]([C@H](C)C[C@@H]2CC[C@@H](O)[C@H](OC)C2)CC(=O)[C@H](C)C=C(C)[C@@H](O)[C@@H](OC)C(=O)[C@H](C)C[C@H](C)/C=C/C=C/C=C1C
- TGI (HOP-18 NSCLC): 133 µM
- TGI (P388 leukemia): 27.8 µM
- TGI (K-562 leukemia): 40.5 µM and 365 µM
- TGI (OVCAR-8 ovarian): 27.7 µM and 62 µM and 243 µM
- TGI (OVCAR-4 ovarian): 6.85 µM and 27 µM
- TGI (SN12K1 renal): 20.9 µM
- TGI (MDA-MB-435): 25.9 µM and 126 µM
- TGI (DLD-1 colon): 25.2 µM
- TGI (DMS 114 small cell lung): 31.5 µM
- TGI (SF-539 CNS): 14.6 µM and 22.4 µM and 82.9 µM
- TGI (M14 melanoma): 27.2 µM and 144 µM
- TGI (HS 578T breast): 13.7 µM and 86.4 µM
- TGI (SNB-78 CNS): 16.9 µM
- GI50 (MDA-N): 79.1 µM
- TGI (HL-60(TB) leukemia): 24.2 µM and 144 µM
- TGI (HCC-2998 colon): 13.8 µM and 26.6 µM and 47.9 µM
- TGI (DMS 273 small cell lung): 33.7 µM
- TGI (MDA-MB-231 breast): 26.3 µM and 170 µM
- TGI (KM20L2 colon): 41.5 µM
- TGI (SK-MEL-2 melanoma): 17.6 µM and 34.9 µM and 67.2 µM

Compound: O=C1CCC[C@]2(CCCC(=O)N2)C1
- TGI (SF-295 CNS): > 100 µM
- TGI (RXF-631 renal): > 100 µM
- TGI (SW-620 colon): > 100 µM
- TGI (CCRF-CEM leukemia): > 100 µM
- TGI (ACHN renal): > 100 µM
- TGI (LXFL 529 NSCLC): > 100 µM
- TGI (SN12C renal): > 100 µM
- TGI (LOX IMVI melanoma): > 100 µM
- TGI (HOP-18 NSCLC): > 100 µM
- TGI (CAKI-1 renal): > 100 µM
- TGI (UO-31 renal): > 100 µM
- TGI (SK-MEL-28 melanoma): > 100 µM
- TGI (HCT-116 colon): > 100 µM
- TGI (A498 renal): > 100 µM
- TGI (K-562 leukemia): > 100 µM
- TGI (EKVX NSCLC): > 100 µM
- TGI (OVCAR-8 ovarian): > 100 µM
- TGI (TK-10 renal): > 100 µM
- TGI (OVCAR-4 ovarian): > 100 µM
- TGI (M19-MEL melanoma): > 100 µM
- TGI (SR leukemia): > 100 µM
- TGI (MOLT-4 leukemia): > 100 µM
- TGI (OVCAR-5 ovarian): > 100 µM
- TGI (KM12 colon): > 100 µM
- TGI (U251 CNS): > 100 µM
- TGI (COLO 205 colon): > 100 µM
- TGI (HCT-15 colon): > 100 µM
- TGI (SNB-19 CNS): > 100 µM
- TGI (RXF 393 renal): > 100 µM
- TGI (DLD-1 colon): > 100 µM
- TGI (DMS 114 small cell lung): > 100 µM
- TGI (SK-OV-3 ovarian): > 100 µM
- TGI (SF-539 CNS): > 100 µM
- TGI (M14 melanoma): > 100 µM
- TGI (MALME-3M melanoma): > 100 µM
- TGI (NCI-H23 lung): > 100 µM
- TGI (HT29 colon): > 100 µM
- TGI (RPMI-8226 leukemia): > 100 µM
- TGI (SF-268 CNS): > 100 µM
- TGI (NCI-H522 lung): > 100 µM
- TGI (UACC-257 melanoma): > 100 µM
- TGI (NCI-H226 lung): > 100 µM
- TGI (NCI-H460 lung): > 100 µM
- TGI (SNB-78 CNS): > 100 µM
- TGI (SK-MEL-5 melanoma): > 100 µM
- TGI (HOP-62 NSCLC): > 100 µM
- TGI (UACC-62 melanoma): > 100 µM
- TGI (IGROV1 ovarian): > 100 µM
- TGI (HL-60(TB) leukemia): > 100 µM
- TGI (HCC-2998 colon): > 100 µM
- TGI (A549 NSCLC): > 100 µM
- TGI (SNB-75 CNS): > 100 µM
- TGI (DMS 273 small cell lung): > 100 µM
- TGI (KM20L2 colon): > 100 µM
- TGI (XF 498 CNS): > 100 µM
- TGI (786-0 renal): > 100 µM
- TGI (HOP-92 NSCLC): > 100 µM
- TGI (SK-MEL-2 melanoma): > 100 µM
- TGI (OVCAR-3 ovarian): > 100 µM

Compound: Cc1cc(NS(=O)(=O)c2ccc(NC(=O)c3ccc(Cl)c4c(Nc5ccc(S(N)(=O)=O)cc5)c5ccccc5nc34)cc2)no1
- TGI (SF-295 CNS): 70 µM
- TGI (RXF-631 renal): 50.2 µM
- TGI (SW-620 colon): 38.9 µM
- TGI (ACHN renal): 73.8 µM
- TGI (LXFL 529 NSCLC): 31.4 µM
- TGI (SN12C renal): 58.6 µM
- TGI (LOX IMVI melanoma): 29.7 µM
- TGI (HOP-18 NSCLC): 83 µM
- TGI (CAKI-1 renal): 40.5 µM
- TGI (UO-31 renal): 69.8 µM
- TGI (SK-MEL-28 melanoma): 42.3 µM
- TGI (HCT-116 colon): 30.8 µM
- TGI (A498 renal): 49.9 µM
- TGI (K-562 leukemia): > 100 µM
- TGI (EKVX NSCLC): 89.1 µM
- TGI (OVCAR-8 ovarian): 36.6 µM
- TGI (TK-10 renal): 86.2 µM
- TGI (OVCAR-4 ovarian): 47 µM
- TGI (M19-MEL melanoma): 38.4 µM
- TGI (SR leukemia): 56.9 µM
- TGI (MOLT-4 leukemia): 56.6 µM
- TGI (OVCAR-5 ovarian): 56.7 µM
- TGI (KM12 colon): 37.8 µM
- TGI (U251 CNS): 27 µM
- TGI (COLO 205 colon): 34.3 µM
- TGI (HCT-15 colon): > 100 µM
- TGI (SNB-19 CNS): 30.2 µM
- TGI (RXF 393 renal): 31.3 µM
- TGI (DLD-1 colon): 52.4 µM
- TGI (DMS 114 small cell lung): 39.7 µM
- TGI (SK-OV-3 ovarian): 59.2 µM
- TGI (SF-539 CNS): 39.2 µM
- TGI (M14 melanoma): 65.7 µM
- TGI (MALME-3M melanoma): 29.3 µM
- TGI (NCI-H23 lung): 49.3 µM
- TGI (HT29 colon): 44.7 µM
- TGI (SF-268 CNS): 40.8 µM
- TGI (NCI-H522 lung): 23.7 µM
- TGI (UACC-257 melanoma): 50.9 µM
- TGI (NCI-H226 lung): 46 µM
- TGI (NCI-H460 lung): 83.1 µM
- TGI (SNB-78 CNS): > 100 µM
- TGI (SK-MEL-5 melanoma): 33.9 µM
- TGI (HOP-62 NSCLC): 41.1 µM
- TGI (UACC-62 melanoma): 25.2 µM
- TGI (IGROV1 ovarian): 44.2 µM
- TGI (HL-60(TB) leukemia): 65.6 µM
- TGI (HCC-2998 colon): 33.2 µM
- TGI (A549 NSCLC): > 100 µM
- TGI (SNB-75 CNS): 42.6 µM
- TGI (DMS 273 small cell lung): 47.4 µM
- TGI (KM20L2 colon): 56.6 µM
- TGI (XF 498 CNS): 36 µM
- TGI (786-0 renal): 34.8 µM
- TGI (HOP-92 NSCLC): 39.2 µM
- TGI (OVCAR-3 ovarian): 37.7 µM
